Source: the supplement of paper PMC10702517
± gives the standard deviation.

Experiments:
[1] = chemical recovery from spiked human plasma; higher = better extraction; settings: pooled human plasma
[2] = chemical recovery into PDMS from spiked human plasma; higher = better extraction; settings: pooled human plasma, extraction method: PES with PDMS
[3] = chemical recovery by SPE of plasma after PDMS sampling; higher = better extraction; settings: pooled human plasma, extraction method: HLB SPE of plasma after PES
[4] = extraction method: SPE only (HLB 96-well)
[5] = extraction method: SPE only (HLB 96-well), PES comparison experiment
[6] = extraction method: solvent precipitation (ACN + hexane)
[7] = extraction method: PES+SPE (3 d PDMS equilibration then HLB SPE)
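Wherever chemical recovery by SPE of plasma after PDMS sampling is given: over 400 spiked chemicals quantified by LC-HRMS or GC-HRMS via internal standard calibration, recovery relative to spike mix added to unspiked plasma extract to correct matrix effects.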

| chemical recovery [1, 4] | chemical recovery [1, 5] | chemical recovery [1, 6] | chemical recovery [1, 7] | chemical recovery by SPE of plasma ([3]; equilibration time (d): 1) | chemical recovery by SPE of plasma ([3]; equilibration time (d): 3) | chemical recovery by SPE of plasma ([3]; equilibration time (d): 6) | SMILES | chemical recovery into PDMS ([2]; equilibration time (d): 1) | chemical recovery into PDMS ([2]; equilibration time (d): 3) | chemical recovery into PDMS ([2]; equilibration time (d): 6) |
| --- | --- | --- | --- | --- | --- | --- | --- | --- | --- | --- |
| 49.3 ± 14% | 28.9 ± 6% | 69.8 ± 6% |  |  |  |  | O=C(Nc1ccc(F)cc1)c1cccc(Oc2cccc(C(F)(F)F)c2)n1 [Picolinafen] | 50.6 ± 4.7% | 54.1 ± 5.5% | 50.4 ± 4.1% |
|  | 45.7 ± 9.4% |  |  |  |  |  | CC(=O)[C@H]1CC[C@H]2[C@@H]3CCC4=CC(=O)CC[C@]4(C)[C@H]3CC[C@]12C [Progesterone] | 47.3 ± 3.5% | 50.6 ± 4.3% | 48.2 ± 0.51% |
|  | 47.4 ± 8.5% | 63.5 ± 3.5% |  | 41.3 ± 2.1% | 46.1 ± 2.4% | 39.8 ± 2.8% | O=C(c1ccc(OCCN2CCCCC2)cc1)c1c(-c2ccc(O)cc2)sc2cc(O)ccc12 [Raloxifene] |  |  |  |
|  | 36.2 ± 4.7% |  |  | 28.8 ± 5.2% | 29.5 ± 4.3% | 26.9 ± 3.6% | CC[C@H]1OC(=O)[C@H](C)[C@@H](O[C@H]2C[C@@](C)(OC)[C@@H](O)[C@H](C)O2)[C@H](C)[C@@H](O[C@@H]2O[C@H](C)C[C@H](N(C)C)[C@H]2O)[C@](C)(O)C[C@@H](C)/C(=N\OCOCCOC)[C@H](C)[C@@H](O)[C@]1(C)O [Roxithromycin] |  |  |  |
|  | 69.7 ± 4.9% |  |  | 61.1 ± 13% | 78.9 ± 5.7% | 59.8 ± 3.9% | O=C(O)c1ccccc1O [Salicylic acid] |  |  |  |
| 20.9 ± 5.4% |  | 75 ± 2.5% |  |  | 21.5 ± 3.9% | 30.9 ± 12% | CC(C)NCC(O)c1ccc(NS(C)(=O)=O)cc1 (configuration not stated) [Sotalol] |  |  |  |
| 30.1 ± 3.6% | 45.7 ± 3.6% |  | 33.4 ± 3.4% | 49 ± 9.9% | 50.2 ± 5.5% | 48.5 ± 7.4% | COc1cc(NS(=O)(=O)c2ccc(N)cc2)nc(OC)n1 [Sulfadimethoxine] |  |  |  |
| 39.4 ± 8.3% | 38.5 ± 11% |  | 0.265 ± 0.056% | 0.427 ± 0.08% | 0.167 ± 0.14% | 0.104 ± 0.056% | CC/C(=C(\c1ccccc1)c1ccc(OCCN(C)C)cc1)c1ccccc1 [Tamoxifen] |  |  |  |
|  | 29.4 ± 10% | 14.4 ± 1.4% |  |  | 30.4 ± 11% |  | CC(C)(c1cc(Br)c(O)c(Br)c1)c1cc(Br)c(O)c(Br)c1 [Tetrabromobisphenol A] |  |  |  |
| 2.67 ± 1.9% |  |  | 0.105 ± 0.0078% | 0.00668 ± 0.0083% |  |  | CCCCNc1ccc(C(=O)OCCN(C)C)cc1 [Tetracain] |  |  |  |
|  | 15.9 ± 4.4% |  |  |  | 47.9 ± 6.8% | 41.5 ± 14% | O=c1[nH]nc(C(F)(F)F)s1 [Thiadone] |  |  |  |
| 43.8 ± 3.6% | 49.1 ± 3.4% | 73.1 ± 4.1% | 38.9 ± 4.2% | 50.8 ± 5.4% | 54 ± 2.9% | 50.9 ± 2.3% | Cc1cccc(Nc2ccncc2S(=O)(=O)NC(=O)NC(C)C)c1 [Torasemide] |  |  |  |
|  | 50.5 ± 3.2% |  |  | 55.2 ± 12% | 58.4 ± 5.8% | 54.9 ± 10% | C[C@]12C=CC(=O)C=C1CC[C@H]1[C@@H]3C[C@@H](O)[C@](O)(C(=O)CO)[C@@]3(C)C[C@H](O)[C@@]12F [Triamcinolone] |  |  |  |
|  | 33.9 ± 4.8% |  |  | 30.2 ± 3.2% | 35.1 ± 4.1% | 33 ± 2.3% | CC[C@H]1OC(=O)C[C@@H](O)[C@H](C)[C@@H](O[C@@H]2O[C@H](C)[C@@H](O[C@H]3C[C@@](C)(O)[C@@H](O)[C@H](C)O3)[C@H](N(C)C)[C@H]2O)[C@@H](CC=O)C[C@@H](C)C(=O)/C=C/C(C)=C/[C@@H]1CO[C@@H]1O[C@H](C)[C@@H](O)[C@@H](OC)[C@H]1OC [TylosinCH4O] |  |  |  |
|  | 35.1 ± 8.2% |  |  | 13.4 ± 2.1% | 7.22 ± 1.1% | 4.01 ± 0.43% | CCCc1nc(C)c2c(=O)nc(-c3cc(S(=O)(=O)N4CCN(CC)CC4)ccc3OCC)[nH]n12 [Vardenafil] |  |  |  |
| 44.9 ± 2.1% | 56.6 ± 4.3% | 72.5 ± 6.1% | 50 ± 3.2% | 62.2 ± 10% | 66.6 ± 3.5% | 62.8 ± 4.6% | CC(=O)CC(c1ccccc1)c1c(O)c2ccccc2oc1=O (configuration not stated) [Warfarin] |  |  |  |
| 38.7 ± 2.6% | 41.5 ± 7.6% | 76 ± 9.8% | 22.9 ± 2.4% | 37.1 ± 6.7% | 34 ± 4.3% | 25.3 ± 2.6% | O=C1Cc2cc(CCN3CCN(c4nsc5ccccc45)CC3)c(Cl)cc2N1 [Ziprasidone] |  |  |  |
| 3.93 ± 0.065% | 3.65 ± 1.4% |  |  |  |  | 0.481 ± 2.9% | C(=C/c1ccccc1)/c1ccccc1 [cis-Stilbene] |  |  |  |
| 46.9 ± 14% | 45.2 ± 4.9% | 74.3 ± 4.9% |  |  | 36.3 ± 2.3% | 38.3 ± 8.9% | Cc1ccc(S(=O)(=O)O)c(C)c1 [m-Xylene-4-sulfonic acid] |  |  |  |
|  |  |  |  |  |  |  | C/C(=C\c1ccccc1)c1ccccc1 [trans-a-Methylstilbene] |  | 97.6 ± 13% | 112 ± 44% |

| SMILES | chemical recovery [1, 4] | chemical recovery [1, 5] | chemical recovery [1, 6] | chemical recovery [1, 7] | chemical recovery by SPE of plasma ([3]; equilibration time (d): 1) | chemical recovery by SPE of plasma ([3]; equilibration time (d): 3) | chemical recovery by SPE of plasma ([3]; equilibration time (d): 6) | chemical recovery into PDMS ([2]; equilibration time (d): 1) | chemical recovery into PDMS ([2]; equilibration time (d): 3) | chemical recovery into PDMS ([2]; equilibration time (d): 6) |
| --- | --- | --- | --- | --- | --- | --- | --- | --- | --- | --- |
| COC(=O)N(OC)c1ccccc1COc1ccn(-c2ccc(Cl)cc2)n1 [Pyraclostrobin] | 48 ± 6.1% | 36.9 ± 5% |  | 71.5 ± 8.6% |  |  |  | 46.4 ± 5.7% | 47.9 ± 3.8% | 46.6 ± 3.3% |
| CCOC(=O)c1cn2nc(OP(=S)(OCC)OCC)cc2nc1C [Pyrazophos] | 43 ± 3.4% | 40.2 ± 7.4% |  | 55.7 ± 7.8% |  |  |  | 39.1 ± 4.4% | 40.5 ± 2.3% | 40.1 ± 2.1% |
| CC(C)(C)c1ccc(CSc2cnn(C(C)(C)C)c(=O)c2Cl)cc1 [Pyridaben] | 7.91 ± 1.1% |  |  |  |  |  |  | 50.4 ± 7.5% | 49.7 ± 3.6% | 49.4 ± 2.4% |
| CC(COc1ccc(Oc2ccccc2)cc1)Oc1ccccn1 (configuration not stated) [Pyriproxyfen] | 39.7 ± 12% | 23 ± 4.6% |  |  |  |  |  | 48.2 ± 4.8% | 50.9 ± 6.1% | 49.3 ± 2.8% |
| Cc1cnc2c(C(=O)O)c(Cl)ccc2c1 [Quinmerac] | 40.8 ± 3.5% | 52.2 ± 6.4% | 65.8 ± 4.1% | 43.6 ± 2.5% | 54.5 ± 9.6% | 61.1 ± 6.2% | 56.5 ± 1.8% |  |  |  |
| CCCN(CC)CC1COC2(CCC(C(C)(C)C)CC2)O1 (configuration not stated) [Spiroxamine] | 47.5 ± 0.85% | 43.7 ± 7.8% |  | 0.223 ± 0.025% | 0.0924 ± 0.066% | 0.0829 ± 0.053% | 0.0434 ± 0.0086% |  |  |  |
| COP(=O)(OC)C(O)C(Cl)(Cl)Cl (configuration not stated) [Trichlorfon] | 33.1 ± 1.9% | 43.1 ± 8.1% | 0.0499 ± 0.086% | 13.2 ± 1.2% | 30.8 ± 2.4% | 25.3 ± 0.61% | 18.2 ± 1.2% |  |  |  |
